The source of these data is US20180094051A1, “METHOD FOR INHIBITING LYMPHANGIOGENESIS BY ADMINISTRATION OF AN INHIBITOR OF THE CXCL12 PATHWAY” (Tsinghua University, priority 2012, published 2018).

“Also recorded” adds a separate entry of the source.

In experiment [1] the test system is newly formed lymphatic vessels. The experiment in a line: In vivo Matrigel plug assay (lymphangiogenesis). On the set-up: species or system BALB/c mice. As to conditions: CXCL12 500 ng/mL; antibodies 10 μg/mL, AMD3100 50 μg/mL; 8 days. How it is done:
Matrigel plug assay was conducted as previously reported^[44]. BALB/C mice (5 weeks old, female, purchased from Vital River Laboratories, Beijing) were divided into five groups, five mice each group. Growth factor-free Matrigel (9-10 mg/mL, purchased from Becton-Dickinson Biosciences) containing 20 ng/mL, 100 ng/mL, 500 ng/mL of chemokine CXCL12 (purchased from R&D Systems), 500 ng/mL of VEGF-C (purchased from R&D Systems), and PBS control, respectively, was injected subcutaneously into the BALB/c mice along the abdominal midline. The Matrigel formed a solid plug in the mice, and the agent was slowly released from the Matrigel to stimulate new mouse lymphatic vessels to be formed and grown into the Matrigel. 8 days later, the Matrigel was removed carefully.
After being washed in PBS, the Matrigel were fixed in 30% sucrose solution at 4° C. overnight. Frozen sections in a thickness of about 10 μm were prepared and stored at −20° C. The frozen sections were blocked with a blocking solution in a humidified chamber at room temperature for 1 hour. The blocking solution was PBS containing 10% normal goat serum. […]
The newly formed lymphatic vessels in the Matrigel were detected by immunofluorescence, and observed and imaged under a laser confocal microscope (Nikon A1) using the imaging and statistic software NIS-Elements AR 3.0. […]

The test system of experiment [2] is mouse lymphatic endothelial cells. The experiment in a line: Cell chemotaxis assay (Transwell). Conditions: antibodies 5 μg/mL, AMD3100 25 μg/mL, 6 hours; for effect on migration of mouse lymphatic endothelial cells induced by CXCL12: CXCL12 100 ng/mL, LY294002 and U0126 10 μM, pretreated 30 minutes. The format is cell-based. How it is done:
The migration ability of mouse lymphatic endothelial cells was assessed using 8-μm-pore Transwell bucket (filter membrane) (purchased from Costar). The transwell bucket was placed into a 24-well plate. Mouse primary lymphatic endothelial cells (mLECs) at passage 2 or 3 in good conditions were selected, and divided into five groups, four parallel samples for each group and approximately 2×10^4 cells for each parallel sample. The cells were digested with trypsin, resuspended in 200 μL of fresh serum-free endothelial cell culture medium (ECM, purchased from Sciencell), and then seeded into the inner chambers of the Transwell bucket. To each outer chamber was added 800 μL of serum-free endothelial cell culture medium mixed with 1 ng/mL, 20 ng/mL, 100 ng/mL of chemokine CXCL12 (purchased from R&D Systems), 100 ng/mL of VEGF-C (purchased from R&D Systems) and PBS control, respectively. The culture plate was placed into an incubator and incubated under 5% CO2 at 37° C. for 6 hours.
After taking out the culture plate, the Transwell bucket was fixed in 4% paraformaldehyde solution for 15 minutes. The Transwell bucket was rinsed twice in PBS, stained with 0.1% crystal violet solution for 30 minutes, and then washed with PBS to remove the non-specifically bound crystal violet. The cells inside Transwell membrane were wiped off gently with medical cotton swabs. Note that the cells on the edge of the membrane should also be wiped off to avoid affecting cell counting. The Transwell bucket was placed under a microscope (Olympus IX71 microscope), and the cells migrated from the outer membrane were observed by microscopy. 8 fields per group were photographed randomly to count the cells.
The migration ability of mouse lymphatic endothelial cells was assessed using 8-μm-pore Transwell bucket (purchased from Costar). The bucket was placed into a 24-well plate. Mouse primary lymphatic endothelial cells (mLECs) at passage 2 or 3 in good conditions were selected, and divided into six groups, four parallel samples for each group, and approximately 2×10^4 cells for each parallel sample. The cells were digested with trypsin and resuspended in 200 μL, of fresh serum-free endothelial cell culture medium (ECM, purchased from Sciencell). The cells were pretreated for 30 minutes with dimethyl sulfoxide (DMSO) as a control, protein kinase B (Akt) antagonist LY294002 (10 μM, purchased from Sigma-Aldrich) and extracellular signal-regulated kinase (Erk) antagonist U0126 (10 μM, purchased from Sigma-Aldrich), respectively, and then seeded into the inner chambers of the Transwell bucket. […] The cells were stained and the number of the migrated cells was counted.
The migration ability of mouse lymphatic endothelial cells was detected by using 8-μm-pore Transwell bucket (purchased from Costar). […]

Another experiment has as its system chemokine receptor CXCR4. Kind of experiment: Immunoblotting of CXCR4 in lymphatic endothelial cells (incl. HIF-1α RNA interference). Conditions: mouse lymphatic endothelial cells, 100 ng/mL VEGF-C, 6, 12 and 24 hours. The class given is cell-based. The protocol:
Mouse primary lymphatic endothelial cells at passage 2 or 3 in good condition were selected, and starved overnight by replacing the culture medium with a fresh medium free of serum and growth factors. Then the medium was replaced with a medium containing 100 ng/mL of VEGF-C. The cells were incubated for 6, 12 and 24 hours, respectively, and then trypsinized and collected by centrifugation for detecting the expression level of chemokine receptor CXCR4 in the cells by immunoblotting.
The samples were subjected to SDS-PAGE (the concentration of separation gel was 15%). Protein bands were transferred to polyvinylidene difluoride (PVDF) membrane (purchased from Millipore) at 100 mA for 3 hours using an electroblotting device in ice bath. TBST buffer (20 mM Tris, pH7.4, 150 mM NaCl, 0.1% Tween-20) was formulated for preparing blocking solution, primary antibody solution and secondary antibody solution. The PVDF membrane was further incubated in blocking solution containing 5% skim milk for 1 hour at room temperature with gentle shaking. The membrane was then washed with TBST for 5 times, 5 minutes each. […]
The siRNA for interfering with the chemical synthesis of HIF-1α was purchased from Santa Cruz Biotechnology, and the negative control siRNA was purchased from GenePharma, Shanghai. […] HIF-1α knock-down efficiency was detected by immunoblotting. […]
On the technique in general: Immunoblotting shows a protein as a band on a membrane.

Turning to `c1cc(CN2CCCNCCNCCCNCC2)ccc1CN1CCCNCCNCCCNCC1` [AMD3100], the “effect on lymphangiogenesis induced by CXCL12 in Matrigel plug” value in experiment [1] is given as “could significantly reduce the activity of chemokine CXCL12”. For the same molecule, the “effect on migration of mouse lymphatic endothelial cells induced by CXCL12” value in experiment [2] is recorded as “could inhibit the migration of mouse lymphatic endothelial cells induced by CXCL12; also recorded: activity of chemokine CXCL12 was inhibited”. Moreover, in experiment [2] (VEGF-C 100 ng/mL), the “effect on activity of VEGF-C (migration of mouse lymphatic endothelial cells)” value was “had no effect on the activity of growth factor VEGF-C; also recorded: the activity of VEGF-C was not affected”.
Regarding `N#CC(=C(/N)Sc1ccccc1N)/C(C#N)=C(\N)Sc1ccccc1N` [U0126], the “effect on migration of mouse lymphatic endothelial cells induced by CXCL12” value in experiment [2] is reported as “inhibited the lymphatic endothelial cell migration induced by chemokine CXCL12”.

B1: CXCR4: Printed in b110 as the treating agent; apparently a misprint for VEGF-C (protein)
chain: MEPISVSIYTSDNYSEEVGSGDYDSNKEPCFRDENVHFNRIFLPTIYFIIFLTGIVGNGLVILVMGYQKKLRSMTDKYRLHLSVADLLFVITLPFWAVDAMADWYFGKFLCKAVHIIYTVNLYSSVLILAFISLDRYLAIVHATNSQRPRKLLAEKAVYVGVWIPALLLTIPDFIFADVSQGDISQGDDRYICDRLYPDSLWMVVFQFQHIMVGLILPGIVILSCYCIIISKLSHSKGHQKRKALKTTVILILAFFACWLPYYVGISIDSFILLGVIKQGCDFESIVHKWISITEALAFFHCCLNPILYAFLGAKFKSSAQHALNSMSRGSSLKILSKGKRGGHSSVSTESESSSFHSS
Take B1: the “expression level of CXCR4” value with chemokine receptor CXCR4 is “could upregulate the expression level of CXCR4”.
